Experiments:
[1] = system: folate-receptor-positive human KB cell tumor xenografts; test: Biodistribution of 111In radiotracer in KB tumor-bearing athymic mice after intravenous administration; assay type: in vivo; conditions: for Percentage of Injected 111In Dose Per Organ (Tissue): Muscle: muscle assumed 42% of body mass
Experimental: Our primary animal model for evaluation of the biodistribution and pharmacokinetics of folate-receptor-targeted radiopharmaceuticals has been athymic mice bearing subcutaneously implanted folate-receptor-positive human KB cell tumors. […] After 3 weeks on folate-free diet, mouse serum folate levels drop to 25±7 nM from the initial 720±260 nM serum folate level when the animals are fed normal rodent chow. This dietary intervention is believed to be a reasonable manipulation of the animal model, since the mice would have serum folate levels only slightly higher than the folate concentration of normal human serum. Thus, in these mouse biodistribution studies the radiotracer is competing for tumor folate receptors with physiologically relevant concentrations of endogenous unlabeled serum folate.
The substantial retention of ^111In in the kidneys is fully consistent with the binding of ^111In-CYK4-013 to tissue folate receptors, since the renal proximal tubule is a known normal tissue site of folate receptor expression. […] The behavior of the ^111In-CYK4-013 radiopharmaceutical in this animal model (Table 2) is very similar to that observed for ^111In-DTPA-Folate (Table 3).
Results. Similar to ^111In-DTPA-Folate, ^111In-CYK4-013 selectively localized in the folate-receptor-positive tumor xenografts, and afforded prolonged tumor retention of ^111In (5.4±0.8; 5.5±1.1; and 3.6±0.6% ID/g at 1 hour, 4 hours, and 24 hours, respectively) (Table 2). […] Blockable binding was also observed in the kidneys, where the folate receptor occurs in the proximal tubules.

[2] = HPLC analysis of stability of the isolated radiometal complex; assay type: physicochemical; conditions: room temperature
Experimental: The major radioactive HPLC peak, eluting with a retention time of 14.1 minutes, was collected. […] HPLC conditions: Solvent A=56 mM NH4OAc in water; Solvent B═CH3CN. Flow rate=1 mL/min on 4.6×250 mm C18 reverse-phase column. Linear gradient conditions: 5% B at zero minutes, ramping to 25% B at 25 minutes, then ramping to 60% B at 27 minutes and 100% B at 30 minutes.
HPLC-purified ^64Cu-CY4-036 was removed from the HPLC solvents by solid-phase extraction. A C18 Sep-Pak Light solid phase extraction cartridge (Millipore, Inc.) was conditioned by washing with ethanol followed by water. The HPLC-purified ^64Cu-CY4-036 was loaded onto the C18 Sep-Pak after dilution with water to 5% acetonitrile, the Sep-Pak was washed with 20 mL water, and the ^64Cu-CY4-036 product recovered by fractional elution with ethanol. The resulting ethanol solution of ^64Cu-CY4-036 was evaporated to dryness under a stream of N2 at room temperature, and the ^64Cu-CY4-036 was reconstituted in water. Analytical HPLC confirmed the radiochemical purity, and stability, of the isolated ^64Cu-CY4-036 product. HPLC conditions: Solvent A=53 mM NH4OAc in water; Solvent B═CH3CN. Flow rate=1 mL/min on 4.6×250 mm C18 reverse-phase analytical column. Linear gradient conditions: 5% B at zero minutes, ramping to 25% B at 25 minutes, then ramping to 60% B at 27 minutes and 100% B at 30 minutes.

[3] = 4 Hours, Blocked: co-injection of folic acid dihydrate 4.1 ± 0.4 mg/kg
[4] = 24 Hours after intravenous administration

Nc1nc(O)c2nc(CNc3ccc(C(=O)NCCOCCOCCNC(=O)CN(CCN(CCN(CC(=O)O)CC(=O)O)CC(=O)O)CC(=O)O)cc3)cnc2n1.[111In+3] [^111In-CYK4-013]
Percentage of Injected 111In Dose Per Gram (Tissue Wet Mass): Heart [1, 3]: 0.015 ± 0.010 % ID/g | Percentage of Injected 111In Dose Per Gram (Tissue Wet Mass): Kidney (one) [1, 3]: 0.90 ± 0.59 % ID/g | Percentage of Injected 111In Dose Per Gram (Tissue Wet Mass): Liver & Gall Bladder [1, 3]: 0.051 ± 0.029 % ID/g | Percentage of Injected 111In Dose Per Gram (Tissue Wet Mass): Lungs [1, 3]: 0.041 ± 0.027 % ID/g | Percentage of Injected 111In Dose Per Gram (Tissue Wet Mass): Muscle [1, 3]: 0.080 ± 0.057 % ID/g | Percentage of Injected 111In Dose Per Gram (Tissue Wet Mass): Spleen [1, 3]: 0.028 ± 0.017 % ID/g | Percentage of Injected 111In Dose Per Gram (Tissue Wet Mass): Stomach, Intestines & Contents [1, 3]: 1.7 ± 1.1 % ID/g | Percentage of Injected 111In Dose Per Organ (Tissue): Blood [1, 3]: 0.025 ± 0.015 Percentage of Injected 111In D | Percentage of Injected 111In Dose Per Organ (Tissue): Heart [1, 3]: 0.0023 ± 0.0016 Percentage of Injected 111In D | Percentage of Injected 111In Dose Per Organ (Tissue): Kidney (one) [1, 3]: 0.23 ± 0.15 Percentage of Injected 111In D | Percentage of Injected 111In Dose Per Organ (Tissue): Liver & Gall Bladder [1, 3]: 0.074 ± 0.044 Percentage of Injected 111In D | Percentage of Injected 111In Dose Per Organ (Tissue): Lungs [1, 3]: 0.0082 ± 0.0051 Percentage of Injected 111In D | Percentage of Injected 111In Dose Per Organ (Tissue): Spleen [1, 3]: 0.0049 ± 0.0029 Percentage of Injected 111In D | Percentage of Injected 111In Dose Per Organ (Tissue): Stomach, Intestines & Contents [1, 3]: 4.6 ± 2.8 Percentage of Injected 111In D | Percentage of Injected 111In Dose Per Organ (Tissue): Tumor [1, 3]: 0.0094 ± 0.0061 Percentage of Injected 111In D | Tumor/blood ratio [1, 3]: 7.5 ± 2.4 | Tumor/kidney ratio [1, 3]: 0.12 ± 0.03 | Tumor/liver ratio [1, 3]: 2.2 ± 0.6 | Tumor/muscle ratio [1, 3]: 1.5 ± 0.7 | Percentage of Injected 111In Dose Per Gram (Tissue Wet Mass): Tumor ([1]; 4 Hours, Blocked: co-injection of folic acid dihydrate 4.1 ± 0.4 mg/kg, 0.4 mg/kg): 0.12±0.07 % ID/g | Percentage of Injected 111In Dose Per Organ (Tissue): Muscle [1, 3]: 1.0 ± 0.7 Percentage of Injected 111In D | Percentage of Injected 111In Dose Per Gram (Tissue Wet Mass): Blood [1, 4]: 0.035 ± 0.002 % ID/g | Percentage of Injected 111In Dose Per Gram (Tissue Wet Mass): Heart [1, 4]: 1.2 ± 0.5 % ID/g | Percentage of Injected 111In Dose Per Gram (Tissue Wet Mass): Kidney (one) [1, 4]: 105 ± 7 % ID/g | Percentage of Injected 111In Dose Per Gram (Tissue Wet Mass): Liver & Gall Bladder [1, 4]: 1.2 ± 0.6 % ID/g | Percentage of Injected 111In Dose Per Gram (Tissue Wet Mass): Lungs [1, 4]: 0.72 ± 0.21 % ID/g | Percentage of Injected 111In Dose Per Gram (Tissue Wet Mass): Muscle [1, 4]: 1.9 ± 0.6 % ID/g | Percentage of Injected 111In Dose Per Gram (Tissue Wet Mass): Spleen [1, 4]: 0.27 ± 0.08 % ID/g | Percentage of Injected 111In Dose Per Gram (Tissue Wet Mass): Stomach, Intestines & Contents [1, 4]: 1.2 ± 0.2 % ID/g | Percentage of Injected 111In Dose Per Gram (Tissue Wet Mass): Tumor [1, 4]: 3.6±0.6 % ID/g | Percentage of Injected 111In Dose Per Organ (Tissue): Blood [1, 4]: 0.055 ± 0.002 Percentage of Injected 111In D | Percentage of Injected 111In Dose Per Organ (Tissue): Heart [1, 4]: 0.18 ± 0.06 Percentage of Injected 111In D | Percentage of Injected 111In Dose Per Organ (Tissue): Kidney (one) [1, 4]: 26.8 ± 2.7 Percentage of Injected 111In D | Percentage of Injected 111In Dose Per Organ (Tissue): Liver & Gall Bladder [1, 4]: 1.7 ± 0.9 Percentage of Injected 111In D | Percentage of Injected 111In Dose Per Organ (Tissue): Lungs [1, 4]: 0.34 ± 0.03 Percentage of Injected 111In D | Percentage of Injected 111In Dose Per Organ (Tissue): Spleen [1, 4]: 0.055 ± 0.017 Percentage of Injected 111In D | Percentage of Injected 111In Dose Per Organ (Tissue): Stomach, Intestines & Contents [1, 4]: 3.3 ± 0.6 Percentage of Injected 111In D | Percentage of Injected 111In Dose Per Organ (Tissue): Tumor [1, 4]: 0.42 ± 0.4 Percentage of Injected 111In D | Tumor/blood ratio [1, 4]: 105 ± 20 | Tumor/kidney ratio [1, 4]: 0.035 ± 0.008 | Tumor/liver ratio [1, 4]: 3.7 ± 1.4 | Tumor/muscle ratio [1, 4]: 2.0 ± 0.6 | Percentage of Injected 111In Dose Per Organ (Tissue): Muscle [1, 4]: 23.1 ± 7.0 Percentage of Injected 111In D | primary whole-body clearance pathway ([1]; athymic mice, intravenous administration): Urinary excretion | time the isolated HPLC peak remains stable [2]: at least 7 days

Reference: patent US8470822B2, “Folate mimetics and folate-receptor binding conjugates thereof” (Purdue Research Foundation, priority 2001, dated 2013)
